Results published in US20170349540A1, “HISTONE DEACETYLASE INHIBITORS” (The General Hospital Corporation, priority 2014, published 2017).

Assays:
[1] = tested on: HDAC; assay: In vivo PET imaging: blocking of whole brain uptake of the radiolabeled compound of Example 3; set-up: species or system rat
Procedure: Male Sprague-Dawley rats were utilized in pairs, anesthetized with inhalational isoflurane (Forane) at 3% in a carrier of 1.5-2 L/min medical oxygen and maintained at 2% isoflurane for the duration of the scan. The rats were arranged head-to-head in a Triumph Trimodality PET/CT/SPECT scanner (Gamma Medica, Northridge, Calif.). Rats were injected standard references or vehicle via a lateral tail vein catheterization at the start of Positron Emission Tomography (PET) acquisition. Dynamic PET acquisition lasted for 60 min and was followed by computed tomography (CT) for anatomic co-registration. PET data were reconstructed using a 3D-MLEM method resulting in a full width at half-maximum resolution of 1 mm. Reconstructed images were exported from the scanner in DICOM format along with an anatomic CT for rodent studies. These files were imported to PMOD (PMOD Technologies, Ltd.) and manually coregistered using six degrees of freedom.
Volumes of interest (VOIs) were drawn manually as spheres in brain regions guided by high resolution CT structural images and summed PET data, with a radius no less than 1 mm to minimize partial volume effects. Time-activity curves (TACs) were exported in terms of decay corrected activity per unit volume at specified time points with gradually increasing intervals. The TACs were expressed as percent injected dose per unit volume for analysis.
Summed PET images following injection with the ^11C radiolabeled (E)-3-(4-((((1r,3R,5S)-adamantan-1-ylmethyl)(methyl)amino)methyl)phenyl)-N-hydroxyacrylamide (Example 3) at baseline or after 5 minutes pretreatment with 0.5 or 2.0 mg/kg unlabeled (E)-3-(4-((((1 r,3R,5 S)-adamantan-1-ylmethyl) (methyl)amino)methyl)phenyl)-N-hydroxyacrylamide illustrate brain uptake and self-blocking, as shown in FIG. 1A. Whole-brain tracer uptake levels, normalized to uptake at 10 min, were altered by 10-40% in self-blocking experiments with 5 min pretreatment with 1.0 μg-2.0 mg/kg unlabeled (E)-3-(4-((((1r,3R,5S)-adamantan-1-ylmethyl) (methyl)amino)methyl)phenyl)-N-hydroxyacrylamide, as shown in FIGS. 1B and 1C. This quantification provides a means to measure occupancy of HDAC targets on the basis of blocked binding of the radiolabeled compound of Example 3.
Whole brain uptake of the radiotracer of Example 3 was measured 4 h after acute systemic treatment.

[2] = Intravenous pharmacokinetics and brain distribution assay; type: in vivo, male Sprague Dawley rats; conditions: single i.v. dose 1 mg/kg
Procedure: Healthy male Sprague Dawley rats (8-12 weeks old) weighing between 200 to 250 g were procured from In vivo Bioscience, Bengluru, India. Three rats were housed in each cage. Temperature and humidity were maintained at 22±3° C. and 40-70%, respectively and illumination was controlled to give a sequence of 12 h light and 12 h dark cycle. Temperature and humidity were recorded by auto-controlled data logger system. All the animals were provided laboratory rodent diet (Vetcare India Pvt. Ltd, Bengaluru) ad libitum. Reverse osmosis water treated with ultraviolet light was provided ad libitum.
Sprague Dawley rats were intravenously administered a solution formulation of the compound of Example 2 prepared in 10% DMSO, 10% Tween 80, 80% normal saline. The blood samples were collected from a set of three rats at each time point in labeled micro centrifuge tube containing K2EDTA solution as anticoagulant. Plasma samples were separated by centrifugation of whole blood and stored at below −70° C. until bioanalysis. After collection of blood samples at each time point animals were humanely euthanized by CO2 and the brain was collected. Brain samples were homogenized using ice-cold phosphate buffer saline (pH=7.4) and homogenates were stored at below −70° C. until analysis. Total homogenate volume was three times the brain weight. All samples were processed for analysis by protein precipitation using acetonitrile and analyzed with fit-for-purpose LC-MS/MS method (LLOQ=1.01 ng/mL in plasma and brain). Pharmacokinetic parameters were calculated using the non-compartmental analysis tool of Phoenix WinNonlin® (Version 6.3).
The compound of Example 2 (5.89 mg) was added in a labeled bottle, followed by DMSO (2.945 mL), Tween 80 (2.945 mL), and normal saline (23.50 mL), and the resulting mixture was mixed by vortexing after each addition. The solution formulation was sonicated for 2 minutes to obtain a clear solution. After preparation of formulation, 200 μL samples were aliquoted for analysis. […] All formulations were freshly prepared prior to dosing. […]
Concentrations of the compound of Example 2 in rat plasma and brain samples were analyzed with fit-for-purpose by LC-MS/MS method. […] Following centrifugation, 100 µL of clear supernatant was transferred to a 96-well plate and analyzed using LC-MS/MS.
Non-Compartmental-Analysis module in Phoenix WinNonlin® (Version 6.3) was used to assess the pharmacokinetic parameters. […] The areas under the concentration time curve (AUClast and AUCinf) were calculated by linear trapezoidal rule. The terminal elimination rate constant, ke, was determined by regression analysis of the linear terminal portion of the log plasma concentration-time curve. […]

Kp ([2]; male, Sprague Dawley, rat, brain/plasma, iv, read-out: brain-to-plasma exposure ratio): 8.35 | clearance ([2]; male, Sprague Dawley, rat, plasma, iv): 79 mL/min/kg | half-life ([2]; male, Sprague Dawley, rat, plasma, iv, read-out: elimination half-life (converted)): 54.6 min | Vss relative to the normal volume of total body water (0.7 L/kg) [2]: 6 fold
SMILES: CN(Cc1ccc(/C=C/C(=O)Nc2ccccc2N)cc1)CC12CC3CC(CC(C3)C1)C2 [Example 2, (E)-3-(4-((((3r,5r,7r)-adamantan-1-ylmethyl)(methyl)amino)methyl)phenyl)-N-(2-aminophenyl)acrylamide]
block of whole brain tracer uptake ([1]; 0.1 mg/kg (lowest tested dosage), 4 h after acute systemic treatment, radiotracer of Example 3, relative to vehicle-blocked baseline): 25% | HDAC occupancy in the brain ([1]; 0.1 mg/kg i.p., based on PET imaging experiments): ~25% | tracer uptake returning to baseline by (time post treatment) ([1]; 0.1 mg/kg, radiotracer of Example 3): ≤ 7.5 h
